SMILES strings stand for the structures. Read-outs that look alike come from different tables or passages of the source.

Series [1] deals with pDNA-PK induction in FaDU tumour spheroids. Nature of the series: Multicellular tumour spheroid + radiation, pDNA-PK (ser2056) inhibition, immunohistochemical endpoint, FaDU. The series is classed as cell-based. The following applies: Homo sapiens, 20 Gy. As to the method: Multicellular tumour spheroids determination of compound inhibition of pDNA-PK induction following radiation. Tumour spheroids were grown to approximately 0.5 mm in diameter and irradiated with 20 Gy in combination with inhibitor test compounds to determine their potency. Inhibitor concentration for 50% reduction in pDNA-PK induction (IC50) was determined via immunohistochemical staining in spheroid cryosections taken 2 hours following radiation. For cell survival endpoint 8 Gy radiation was used and 3 hours following radiation spheroids were dissociated, counted and plated for colony forming endpoint.
Spheroid+radiation pDNA-PK. Radiation: 20 Gy. Drug: serial dilution 5 or 10 μM down to 3.5 nM (11 wells). Spheroids: 3-6 spheroids per well (300-500 μm diameter). 20% 02 and 5% CO2. 96 well plate format. Endpoint: fluorescent immunostain pDNA-PK ser2056 and image on microscope. Analysis: determine EC50 concentrations that decreases pDNA-PK induction by 50% after irradiation.
Multicellular tumour spheroids were used to determine potency of test compounds in a 3D tissue environment using inhibition of pDNA-PK induction following radiation or cell survival as the endpoint. For the pDNA-PK endpoint HCT116 or FaDU tumour spheroids were grown to approximately 0.5 mm in diameter and irradiated with 20 Gy in combination with inhibitor test compounds to determine their potency. Experiments were carried out in 96 well plates containing 0.7 mls of MEM media containing 10% FBS and 10 mM glucose under 20% O2 & 5% CO2 at 37° C. Following dilution of compounds 1:1000 from DMSO stocks, compounds were serially diluted from 10 μM down to 3.5 nM and 5-10 spheroids added. 96 well plates were constantly stirred to avoid spheroids settling during the course of the experiment. The inhibitor concentration for 50% reduction in pDNA-PK induction (EC50) was determined via immunohistochemical staining in spheroid cryosections taken 2 hours following radiation using anti-pDNA-PK (ser 2056) and fixed immediately in formalin following sectioning. For cell survival endpoint 8 Gy radiation was used and, 3 hours following radiation, spheroids were dissociated, counted and plated for colony forming endpoint. Data presented in the table compound potency as EC50 [μM].

The target of series [2] is T1, DNA-PK phosphorylation at Serine 2056 (Homo sapiens, UniProt P78527).
T1 construct: FaDu cells were purchased from ATCC; host or cells: FaDu
The series can be described thus: Cellular Assay for Inhibition of DNA-PK Phosphorylation at Serine 2056 in FaDu cells (sandwich ELISA, neocarzinostatin). The series is classed as cell-based. Conditions: pSer2056 DNA-PK, neocarzinostatin 1 μg/mL, Table 1. The method, boiled down: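 FaDu cells pre-treated with compound (0.3% DMSO) for 1 h, then neocarzinostatin 1 μg/mL final added for 2 h to induce DSBs. Protein-normalised lysates read by sandwich ELISA for total and pSer2056 DNA-PK; % inhibition normalised between DMSO and NCS controls, IC50 from variable-slope log(inhibitor) fit.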

Another series addresses T2, DNA-PK (Homo sapiens, UniProt P78527).
T2 construct: purchased Invitrogen PR9107A
Nature of the series: DNA-PK Assay for Biochemical Enzymatic Inhibition (ADP Glo Kinase assay). Conditions: DNA-PK enzyme, Table 1. The method, boiled down:
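Human DNA-PK (25 ng) preincubated 15 min with compounds (ten three-fold dilutions) in HEPES pH 7.5, MgCl2, KCl, calf thymus DNA buffer, then substrate 434.4 μM and ATP 64.4 μM (final) for 60 min at room temperature. ADP-Glo luminescence; percent inhibition fitted by four-parameter regression for IC50.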

In series [3] the test system is pDNA-PK induction in HCT116 tumour spheroids. Nature of the series: Multicellular tumour spheroid + radiation, pDNA-PK (ser2056) inhibition, immunohistochemical endpoint, HCT116. It counts as cell-based. Conditions: Homo sapiens, 20 Gy, 20% O2. Summed up:
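HCT116 spheroids (~0.5 mm) in MEM/10% FBS, 20% O2, 37° C., pre-incubated 1 h with compound (10 or 5 μM down to 3.5 nM), irradiated 20 Gy, then 2 h further with compound. Cryosections immunostained for pDNA-PK ser2056; EC50 is concentration halving radiation-induced pDNA-PK.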

A short description of series [4]: Microsomal Stability Assay, mouse liver microsomes. It counts as in vitro ADME. Conditions: for microsomal CLint at 0.1 uM: male, CD-1, pH 7.4, mouse liver microsomes 0.1 mg/mL, 0.1 uM compound; for Microsomal Stability Mouse % rem. 60 min: mouse liver microsomes. The procedure:
Samples were then mixed and centrifuged. Supernatants were used for HPLC-MS/MS analysis. […] Peak areas corresponding to the test compound were recorded.

Setting [5] is: 2 hours following radiation, 20% O2, Example 9 Study 2, read-out: Spheroid Cell line: FaDU Immunohistochemical endpoint pDNA-PK inhibition EC50.
The mark [6] stands for this setting: 2 h, spheroids, 20% O2, Example 8, read-out: Cell line: FaDU Immunohistochemical endpoint pDNA-PK inhibition EC50.
Where [7] appears, read: HCT-116, 2 h, spheroids, Example 8, read-out: Cell line: HCT116 Immunohistochemical endpoint pDNA-PK inhibition EC50.
Setting [8] is: HCT-116, 2 hours following radiation, Example 9 Study 2, read-out: Spheroid Cell line: HCT116 Immunohistochemical endpoint pDNA-PK inhibition EC50.
[9] abbreviates: HCT-116, Spheroid, Cell Line: HCT115 (so in the source), 2 hours following radiation, Example 7, read-out: EC50, Immunohistochemical endpoint, pDNA-PK inhibition.

In the case of `COc1ccc(NC(=O)N[C@H]2CC[C@@H](Oc3nc(N4CCOCC4)cc4ncccc34)CC2)cc1` [Compound 152, 1-(4-Methoxyphenyl)-3-((1s,4s)-4-((7-morpholino-1,6-naphthyridin-5-yl)oxy)cyclohexyl)urea], the EC50 lay in the range of 500 to 1000 nM in series [1] (setting [5]); 500 to 1000 nM in series [1] (setting [6]); 1000 to 10000 nM in series [3] (setting [7]); 1000 to 10000 nM in series [3] (setting [8]); 1000 to 10000 nM in series [3] (setting [9]). Besides, the results for the IC50 (in series [2]; on DNA-PK) were 100 to 1000 nM and 0.5 to 1 nM, respectively.
For `O=C(Nc1ccncc1)[C@H]1CC[C@@H](Oc2nc(N3CCOCC3)cc3ncccc23)CC1` [Compound 154e, (1S,4S)-4-((7-morpholino-1,6-naphthyridin-5-yl)oxy)-N-(pyridin-4-yl)cyclohexane-1-carboxamide], the EC50 in series [1] (setting [5]) lay in the range of 500 to 1000 nM; in series [1] (setting [6]) it was 500 to 1000 nM; in series [3] (setting [7]), 1000 to 10000 nM; in series [3] (setting [8]), 1000 to 10000 nM; in series [3] (setting [9]), 1000 to 10000 nM. Also, the IC50 in series [2] lay within 100 to 1000 nM; at DNA-PK, 1 to 10 nM. This compound also yielded a microsomal CLint at 0.1 uM in series [4] of over 116 µL/min/mg. Also, the “Microsomal Stability Mouse % rem. 60 min” value in series [4] is given as “E (% remaining = 0-25%)”.
For the compound `CN(C)C(=O)COc1cnc(N[C@H]2CC[C@@H](Oc3nc(N4CCOCC4)cc4ncc(Br)cc34)CC2)nc1` [Compound 178, 2-((2-(((1s,4s)-4-((3-bromo-7-morpholino-1,6-naphthyridin-5-yl)oxy)cyclohexyl)amino)pyrimidin-5-yl)oxy)-N,N-dimethylacetamide], the EC50 lay in the range of 1000 to 10000 nM in series [1] (setting [5]); 1000 to 10000 nM in series [1] (setting [6]); 500 to 1000 nM in series [3] (setting [7]); 500 to 1000 nM in series [3] (setting [8]); 500 to 1000 nM in series [3] (setting [9]). The IC50 in series [2] is 100 to 1000 nM; on DNA-PK, under 0.5 nM.
Take `O=C(O)c1cnc2cc(N3CCOCC3)nc(O[C@H]3CC[C@@H](Nc4ncccn4)CC3)c2c1` [Compound 183, 7-morpholino-5-(((1s,4s)-4-(pyrimidin-2-ylamino)cyclohexyl)oxy)-1,6-naphthyridine-3-carboxylic acid]: the EC50 in series [1] (setting [5]), in series [1] (setting [6]), in series [3] (setting [7]), in series [3] (setting [8]) and in series [3] (setting [9]) was 1000 to 10000 nM in each case. Besides, the IC50 was 1000 to 10000 nM in series [2] and under 0.5 nM at DNA-PK. The compound further showed a microsomal CLint at 0.1 uM in series [4] of under 116 µL/min/mg. For the same compound, the “Microsomal Stability Mouse % rem. 60 min” value in series [4] is “H (% remaining = 75-100%)”.
